Reference: US20080118992A1, “Method For Measuring Molecular Interactions By Laser Light Scattering (Lls)” (UNIVERSITA DEGLI STUDI DI MILANO, priority 2004, published 2008)
Where a name gives a salt, the structure may show the parent alone.

System: peptide sequence L-Lys-D-Ala-D-Ala (Receptor)
Assay: Determination of the binding constant by Laser Light Scattering (LLS) on receptor-coated polymer particles
Details: Langmuir fit
Experimental: […]
After each addition the mixture was stirred for 30 seconds and let balance for 1 minute, and the scattering light intensity was measured by using a 5 milliwatt He—Ne laser and a photomultiplier to convert the scattered light into an electric signal.
The light intensity was recorded for 10 seconds for consecutive six times thus selecting the lowest value in order to minimize the noise due to the possible presence of powder in the sample. […]

With `CN[C@H](CC(C)C)C(=O)N[C@H]1C(=O)N[C@@H](CC(N)=O)C(=O)N[C@H]2C(=O)N[C@H]3C(=O)N[C@H](C(=O)N[C@H](C(=O)O)c4cc(O)cc(O)c4-c4cc3ccc4O)[C@H](O)c3ccc(c(Cl)c3)Oc3cc2cc(c3O[C@@H]2O[C@H](CO)[C@@H](O)[C@H](O)[C@H]2O[C@H]2C[C@](C)(N)[C@H](O)[C@H](C)O2)Oc2ccc(cc2Cl)[C@H]1O` [Vancomycin, Vancomycin hydrochloride hydrate] the “binding constant (receptor-ligand)” value (Example 1: particles of average diameter 78 nm, TFE copolymer with 40% by moles perfluoromethylvinylether, 0.4 millimole Vancomycin solution) was 1.5e+06 mol⁻¹ and the “binding constant (receptor-ligand)” value (Example 2: particles of average diameter 40 nm, TFE copolymer with 30% by moles TTD, 0.9 millimolar Vancomycin) was 1.1e+06 mol⁻¹.
